Measurements published in patent publication US5071848A, “Tricyclic quinoline antineoplastic agents” (Abbott Laboratories, priority 1989, dated 1991).
≈ marks a conversion by molar mass, not a printed value.

What was measured:
DNA topoisomerase II = test: DNA Breakage Assay: topoisomerase II-mediated DNA breakage (linearized 32P-labeled PBR 322 plasmid, agarose gel); type: biochemical, calf; design: key to Topoisomerase II-mediated DNA breakage, extent of breakage: SB: strong breakage; MB: moderate breakage; WB: weak breakage; details: for Topoisomerase II-mediated DNA breakage, extent of breakage: at the concentration given; for Topoisomerase II-mediated DNA breakage, Concentration: concentration of compound which cleaves the DNA to smaller fragments, 30 minutes incubation
Protocol: Antitumor activity was assayed using the DNA Breakage Assay described below.
The DNA breakage assay requires two major reagents: DNA topoisomerase II and radiolabeled DNA. DNA topoisomerase II (topo II) was isolated from calf thymus as described by B. D. Holligan, et al. in J. Biol. Chem., 260, 2475-2482 (1985). Pure enzyme or partially purified extracts enriched in topo II activity may be used. PBR 322 plasmid was used as the DNA substrate. This plasmid, which is isolated in the closed circular form, is first linearized using, a restriction enzyme which cuts the plasmid in only one place. The newly exposed ends of the plasmid are then labeled with the radionuclide, 32P, using standard techniques described by T. Maniatis, et al. in "Molecular Cloning", Cold Spring Harbor Press, p. 115 (1982).
The enzyme and the radiolabeled DNA are added together first, then drug is added. After an incubation period of 30 minutes, the mixtures are quenched using 1% SDS. The mixtures are then subjected to agarose gel electrophoresis which separates the full length, linear substrate DNA from any small fragments that might be formed as a consequence of drug action. Smaller fragments run with a higher mobility. The distribution of the DNA species in the gel is assessed by autoradiography as described by T. Maniatis, et al. in "Molecular Cloning", Cold Spring Harbor Press, p. 115 (1982).
DNA breakage activity is assessed based on the level of substrate lost, the level of DNA appearing as smaller pieces running faster in the gel, and the distribution of these smaller pieces in the gel. The last criterion is important since drug-induced DNA cleavage that is enzyme-mediated fragmentation results in specific banding patterns due to the fact that the enzyme binds to specific sequences along the DNA molecule. A definite banding pattern is thus indicative of topo II-mediated cleavage and correlates well with anti-tumor activity.

A549 cell line = test: In vitro cytotoxicity assay (three day MTT microtiter assay), A549; type: cell-based; details: Homo sapiens, 72 h; A549, three days, MTT; read-out: In vitro tumor cell cytotoxicity (IC50), A549
Protocol: (§1) IC50 's were measured in a colorimetric assay for cytotoxic activity against cultured cells according to the protocol described below:
(§2) A three day microtiter assay is used to measure the growth inhibition of cultured cells exposed to a range of drug concentrations. Metabolic activity is measured by the cell's ability to reduce the tetrazolium dye, MTT (3-(4,5-dimethylthiazol-2-yl)-2,5-diphenyltetrazolium bromide) to a quantifiable colored end-product, which absorbs at 570 nm in the visible spectrum. Surviving cells reduce the MTT dye.
(§3) Test compounds are dissolved in dimethyl sulfoxide (DMSO) and diluted, first with Earle's Balanced Salt Solution, followed by culture medium, to twice the highest concentration of compound to be tested. From this concentrated stock, two-fold serial dilutions are prepared in 96-well microtiter trays, each well containing twice the desired final concentration of compound. Each concentration is tested in triplicate and compared to triplicate drug-free controls.
(§4) The cells are grown in the same medium used for diluting the compounds. After harvesting by trypsinization*, viable cell counts are determined and cell density is adjusted to 25,000 cells/mL. Inoculum (0.1 mL), containing the cells, is then added to each well for a final concentration of 2,500 cells per well. Addition of the inoculum dilutes the test compounds to the desired final concentration.
(§5) *Adherent cells are harvested by trypsinization as follows:
(§6) 1. Remove the medium by aspiration.
(§7) 2. Rinse cell monolayer twice with Earle's Balanced Salt Solution.
(§8) 3. Add trypsin (0.05%)/EDTA (0.53 mM). For each 25 cm^2 use approximately 0.2 mL of solution, tilt to cover the monolayer, then withdraw trypsin leaving only a thin film of solution. Incubate at room temperature until cell monolayer detaches.
(§9) 4. When the cells have detached as determined by visual and/or microscopic observation, add medium containing fetal calf serum to stop the action of the trypsin and resuspend the cells. Triturate to aid dissociation of cell clumps.
(§10) 5. Determine the number of cells per milliliter by electronic cell counter (e.g. Coulter Counter) or by mixing an aliquot of cell suspension with Trypan Blue (0.4% in normal saline) and counting the viable cells using a hemacytometer.
(§11) Microtiter trays are incubated for three days at 36° C. in a humidified atmosphere containing 5% carbon dioxide.
(§12) After three days, 20 microtiters of 5 mg/mL MTT in phosphate-buffered saline solution is added to each well. Trays are returned to the incubator for two to four hours to allow the surviving cells to reduce the dye. Medium and unreduced dye are removed by aspiration. DMSO is added to each well to dissolve the water insoluble, colored end product of the dye reduction so that it can be measured spectrophotometrically at 570 nm.

[1] = system: P388.D1 leukemia cell line; test: In vitro cytotoxicity assay (three day MTT microtiter assay), P388.D1; type: cell-based; details: Mus musculus, P388D1, 72 h, read-out: In vitro tumor cell cytotoxicity (IC50), P388.D1
Protocol: The cytotoxity of the compounds of the present invention is illustrated in Table 6. IC50 's were measured in a colorimetric assay for cytotoxic activity against cultured cells according to the protocol described below:
as §2, §3, §4, §5, §6, §7, §8, §9, §10, §11
After three days, 20 microtiters of 5 mg/mL MTT in phosphate-buffered saline solution is added to each well. Trays are returned to the incubator for two to four hours to allow the surviving cells to reduce the dye. Medium and unreduced dye are removed by aspiration. DMSO is added to each well to dissolve the water insoluble, colored end product of the dye reduction so that it can be measured spectrophotometrically at 570 nm. The IC50 is determined as the concentration of compound tested required to reduce the absorbance at 570 nm to 50% of non-drug treated control values.
^c P388 D1 is a leukemia cell line.

Hela cells = test: In vitro cytotoxicity assay (three day MTT microtiter assay), Hela; type: cell-based; details: Homo sapiens, 72 h; Hela cells, three days, MTT; read-out: In vitro tumor cell cytotoxicity (IC50), Hela
Protocol: as §1, §2, §3, §4, §5, §6, §7, §8, §9, §10, §11, §12

P388 Leukemia = test: In vivo antitumor activity, P388 Leukemia, increased lifespan; design: species or system BDF1 mice; details: IP, day 1 to day 5, survival monitored 30 days
Protocol: The in vivo data presented in Table 7 was determined in BDF1 mice for two murine cancer models, using 6 to 10 animals per test group. In the case of Lewis Lung carcinoma (LL) the mice are inoculated subcutaneously (SC) in the axillary region with a puncture in the inguinal area with the tumor on day 0. The compound being tested is administered intraperitoneally (IP) from day 1 to day 9 for a total of nine injections. The tumors are weighed on day 14 and the weight inhibition expressed as the median weight ratio of treated (T) to control (C) tumors. In the case of P388 Leukemia cells, a suspension of diluted ascites fluid (0.1 mL) containing 1×10^6 cells is implanted IP into the mice on day 0 and the compound being tested is administered IP from day 1 to day 5 for a total of five injections. Survival was monitored for 30 days and the increased lifespan expressed as median survival time of treated (T) to control (C) mice.

| SMILES | Topoisomerase II-mediated DNA breakage, extent of breakage (DNA topoisomerase II) | Topoisomerase II-mediated DNA breakage, Concentration (DNA topoisomerase II) [µg/mL] | other results |
| --- | --- | --- | --- |
| O=c1[nH]sc2c1c(=O)c1cc(F)c(N3CCNCC3)cc1n2C1CC1 [Example 19, 9-Cyclopropyl-6-fluoro-7-(1-piperazinyl)-2,3,4,9-tetrahydroisothiazolo[5,4-b]quinoline-3,4-dione] | MB | 64 | – |
| CCn1c2s[nH]c(=O)c2c(=O)c2cc(F)c(N3CCNC(C)C3)c(F)c21 (stereo not drawn) [Example 15] | MB | 128 | – |
| O=c1[nH]sc2c1c(=O)c1cc(F)c(N3CCCC(O)C3)c(F)c1n2C1CC1 (stereo not drawn) [Example 9] | SB | 32 | IC50 (A549 cell line): 3.9 µg/mL (≈ 9.91 µM); IC50 [1]: 2.05 µg/mL (≈ 5.21 µM) |
| O=c1[nH]sc2c1c(=O)c1cc(F)c(NC3CCN(Cc4ccccc4)CC3)c(F)c1n2C1CC1 [Example 13] | – | – | IC50 (Hela cells): 0.55 µg/mL (≈ 1.14 µM) |
| CNC1CCN(c2cc3c(cc2F)c(=O)c2c(=O)[nH]sc2n3C2CC2)C1 (stereo not drawn) [Example 25] | WB | 64 | – |
| NCC1CCN(c2c(F)cc3c(=O)c4c(=O)[nH]sc4n(C4CC4)c3c2F)C1 (stereo not drawn) [Example 12] | SB | 32 | IC50 (A549 cell line): 0.3 µg/mL (≈ 0.764 µM); IC50 [1]: < 0.05 µg/mL |
| CCn1c2cc3c(cc2c(=O)c2c(=O)[nH]sc21)OCO3 [Example 29, 9-Ethyl-6,7-methylenedioxy-2,3,4,9-tetrahydroisothiazolo[5,4-b]quinoline-3,4-dione] | WB | 128 | – |
| O=c1[nH]sc2c1c(=O)c1cc(F)c(N3CCCC3)c(F)c1n2C1CC1 [Example 32] | WB | 64 | – |
| CCn1c2s[nH]c(=O)c2c(=O)c2cc(F)c(N3CCC(N)C3)c(F)c21 (stereo not drawn) [Example 17] | WB | 32 to 64 | – |
| O=c1[nH]sc2c1c(=O)c1cc(F)c(N3CCCNCC3)c(F)c1n2C1CC1 [Example 7] | SB | 32 | IC50 [1]: 0.2 µg/mL (≈ 0.51 µM) |
| O=c1[nH]sc2c1c(=O)c1cc(F)c(N3CCOCC3)c(F)c1n2C1CC1 [Example 1, 9-Cyclopropyl-6,8-difluoro-7-(1-morpholino)-2,3,4,9-tetrahydroisothiazolo[5,4-b]quinoline-3,4-dione] | SB | 32 | P388 Leukemia % T/C, median lifespan of treated compared to control mice (P388 Leukemia; 31.25 mg/kg): 104%; P388 Leukemia % T/C, median lifespan of treated compared to control mice (P388 Leukemia; 62.5 mg/kg): 100%; P388 Leukemia % T/C, median lifespan of treated compared to control mice (P388 Leukemia; 125 mg/kg): 108%; P388 Leukemia % T/C, median lifespan of treated compared to control mice (P388 Leukemia; 250 mg/kg): 108%; IC50 (Hela cells): 7 µg/mL (≈ 18.5 µM) |
| CN1CCN(c2c(F)cc3c(=O)c4c(=O)[nH]sc4n(C4CC4)c3c2F)CC1 [Example 4] | SB | 32 | IC50 (Hela cells): 1.3 µg/mL (≈ 3.31 µM) |
| O=c1[nH]sc2c1c(=O)c1cc(F)c(N3CCSCC3)c(F)c1n2C1CC1 [Example 6] | SB | 32 | IC50 (A549 cell line): 12.5 µg/mL (≈ 31.6 µM); IC50 [1]: 6.3 µg/mL (≈ 15.9 µM) |
| CCn1c2s[nH]c(=O)c2c(=O)c2cc(F)c(N3CCN(C)CC3)c(F)c21 [Example 16] | MB | 32 to 64 | – |
| CC1CN(c2cc3c(cc2F)c(=O)c2c(=O)[nH]sc2n3C2CC2)CCN1C (stereo not drawn) [Example 22] | WB | 128 | – |
| O=c1[nH]sc2c1c(=O)c1cc(F)c(N3CCN(CCO)CC3)c(F)c1n2C1CC1 [Example 5] | MB | 64 | P388 Leukemia % T/C, median lifespan of treated compared to control mice (P388 Leukemia; 2.5 mg/kg): 125%; P388 Leukemia % T/C, median lifespan of treated compared to control mice (P388 Leukemia; 5 mg/kg): 129%; P388 Leukemia % T/C, median lifespan of treated compared to control mice (P388 Leukemia; 10 mg/kg): 142%; P388 Leukemia % T/C, median lifespan of treated compared to control mice (P388 Leukemia; 12.5 mg/kg): 117%; IC50 (Hela cells): 4 µg/mL (≈ 9.47 µM) |
| O=c1[nH]sc2c1c(=O)c1cc(F)c(N3CCC(O)C3)cc1n2C1CC1 (stereo not drawn) [Example 23] | WB | 32 to 128 | – |
| O=c1[nH]sc2c1c(=O)c1cc(F)c(N3CCCCC3)c(F)c1n2C1CC1 [Example 8] | MB | 32 | IC50 (Hela cells): 3.9 µg/mL (≈ 10.3 µM) |
